Values quoted from earlier work as cited in patent publication US20050038042A1, “Modified release composition comprising a short-acting hypnotic for treatment of sleep disorders” (priority 2002, published 2005).

Experiments:
[1] = compared with marketed benzodiazepines
[2] = in humans

For `CCN(C(C)=O)c1cccc(-c2ccnc3c(C#N)cnn23)c1` [Zaleplon, N-[3-(3-cyanopyrazolo[1,5-a]pyrimidin-7-yl)phenyl]-N-ethylacetamide], the “effects in animal models” value [1] is given as “sedative, anxiolytic, myorelaxant, and anticonvulsive effects similar to those of marketed benzodiazepines”, the “time to maximum plasma concentration (tmax)” value [2] is given as 48 min and the “effect on sleep onset” value (clinical trials) is given as “effective in shortening sleep onset”. The safety profile (clinical trials, versus previously available benzodiazepine or nonbenzodiazepine hypnotics) was “more favorable safety profile”, the “period over which decreased time to sleep onset was shown” value (controlled clinical studies) was “up to 28 days” and the “mean duration of effect” value (human, in vivo) was 4 to 5 h. For the same compound, the “total sleep time / number of awakenings” value (patients with sleep disorders) was “not been shown to consistently increase total sleep time or decrease the number of awakenings”.
